# Measured values: ChEMBL document CHEMBL4725410, “Novel Heteroaromatic Compounds as Vanin Inhibitors” (ACS Med Chem Lett, 2020)
# Biological target: T1, Pantetheinase (Homo sapiens, UniProt O95497)
# T1 sequence (O95497 whole entry): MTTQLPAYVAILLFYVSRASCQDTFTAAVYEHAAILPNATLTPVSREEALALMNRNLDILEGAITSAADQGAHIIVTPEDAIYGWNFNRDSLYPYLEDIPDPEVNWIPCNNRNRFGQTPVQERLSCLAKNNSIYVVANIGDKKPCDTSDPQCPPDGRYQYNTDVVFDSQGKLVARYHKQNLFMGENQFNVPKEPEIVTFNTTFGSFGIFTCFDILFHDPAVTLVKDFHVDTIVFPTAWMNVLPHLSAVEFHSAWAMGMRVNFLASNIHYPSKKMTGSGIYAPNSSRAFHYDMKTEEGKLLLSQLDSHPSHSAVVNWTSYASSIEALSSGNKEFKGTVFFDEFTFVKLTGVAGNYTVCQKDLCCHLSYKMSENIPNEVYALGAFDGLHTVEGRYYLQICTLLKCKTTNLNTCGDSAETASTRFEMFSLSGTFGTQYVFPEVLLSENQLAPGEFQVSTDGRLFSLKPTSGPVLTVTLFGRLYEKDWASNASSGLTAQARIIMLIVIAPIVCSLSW
# Experiment: Inhibition of human vanin-1 in whole blood
# Assay type: tissue-based
row,IC50 [nM],Compound
1,2.7,CC(C)(C)Nc1ccc(C(=O)N2CC(C)(c3ccccn3)C2)cn1
2,2.7,CN(C(=O)[C@@H]1CCCO1)[C@H]1CCN(C(=O)c2ccc(NC(C)(C)C)nc2)C1
3,1.6,CC(=O)N(C)[C@H]1CCN(C(=O)c2ccc(NC(C)(C)CCO)nc2)C1
4,3.1,CCC(C)(C)Nc1ccc(C(=O)N2CC[C@H](N(C)C(C)=O)C2)cn1
5,3.6,CN(C(=O)C1CC(F)(F)C1)[C@H]1CCN(C(=O)c2ccc(NC(C)(C)C)nc2)C1
6,4,CC(C)(C)Nc1ccc(C(=O)N2CC[C@H](N3CCOC3=O)C2)cn1
